# In US9211244B2, “Method for anti-skin aging using caffeamide derivative” (CHINA MEDICAL UNIVERSITY, priority 2013, dated 2015):
# Legend:
# tyrosinase = target: T1, tyrosinase (Mus musculus, UniProt P11344); assay: Activity analysis of tyrosinase in B16 cells; type: cell-based; conditions: 5 μM to 125 μM, 48 hours
# T1 construct: endogenous in cells; host or cells: B16 cells
# T1 sequence (P11344 19-533): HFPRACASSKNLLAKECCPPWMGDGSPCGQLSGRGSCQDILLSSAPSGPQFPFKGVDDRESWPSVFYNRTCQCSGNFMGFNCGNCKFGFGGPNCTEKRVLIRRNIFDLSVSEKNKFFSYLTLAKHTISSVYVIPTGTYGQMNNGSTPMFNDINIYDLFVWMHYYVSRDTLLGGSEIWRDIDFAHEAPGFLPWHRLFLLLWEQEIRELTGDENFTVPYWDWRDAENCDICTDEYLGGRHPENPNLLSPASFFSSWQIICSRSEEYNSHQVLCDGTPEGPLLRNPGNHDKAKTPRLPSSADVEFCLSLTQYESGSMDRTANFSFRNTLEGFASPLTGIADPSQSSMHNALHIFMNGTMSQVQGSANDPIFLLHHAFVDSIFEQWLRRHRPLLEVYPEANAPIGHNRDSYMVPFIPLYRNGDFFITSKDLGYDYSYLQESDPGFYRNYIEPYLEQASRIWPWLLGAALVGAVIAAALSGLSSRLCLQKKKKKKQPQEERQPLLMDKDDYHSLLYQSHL
# Method: It has been known that tyrosinase is one of the primary protein participating in melanogenesis. In this experiment, different concentrations (5 μM to 125 μM) of the compounds of formula […] or (2) prepared in Example 1 were used to treat B16 cells (1.5×10^4) for 48 hours, and the activity of tyrosinase was analyzed by western blotting.
# MMP-9 = type: cell-based, human; conditions: 10 μM; UVB 40 mJ/cm^2; 48 hours
# Method: After incubating for 1 hour, the cells were irradiated by UV light (UVB with an intensity of 40 mJ/cm^2) for 15 seconds. […] After incubation in an incubator (37° C., 5% CO2) for 48 hours, the cells were collected.
# The collected cells were treated with a sonication buffer (containing Na3VO4 (100 μM), phenylmethanesulfonyl fluoride (PMSFL, 100 mg/ml), leupeptin (20 mg/ml), Tris-HCl (pH 7.4, 50 μM), NaCl (37.5 μM), DL-dithiothretiol (250 μM), sodium deoxycholate (3 μM), EDTA (1 μM), SDS (0.1%), and Igepal™ CA-630 (Sigma-Aldrich, 1%)) and sonicated to rupture the cell membranes. Then, the organelles and fragments of the cells were precipitated by centrifugation, and the supernatant, which contains proteins in the cytosol was collected. Next, the obtained proteins were separated by SDS-PAGE, and transferred to a membrane by western blotting. Antibodies were used to recognize the targeted proteins, such as MMP-1, MMP-3, MMP-9, and actin. The images were recorded by a Luminescent imagination technology (LAS-4000, FUJIFILM), and the variation of the proteins expression levels were determined by a quantitative analysis software (multi Gauge 2.2, Steware Technology Inc.).
# skin of white rabbit = assay: Primary skin irritation test; type: in vivo, New Zealand white rabbit
# Method: First, 20 mg (low dosage) and 80 mg or 100 mg (high dosage) of the compounds of formula (1) and formula (2) prepared in Example 1 were dissolved in 1 ml of 40% PEG-400 solution, respectively. Next, a New Zealand white rabbit was fixed on a rabbit cage and the fur on its back was clipped. A color pen was used to draw six squares (2.5 cm×2.5 cm for each square) of smearing region. The six squares were divided into keratin intact group and keratin abraded group. In the keratin abraded group, a sterile needle was used to scrape four parallel lines inside the squares on the back of the white rabbit to damage the keratin layer, but without bleeding. Low dosage and high dosage of compounds of formula (1) or formula (2) were smeared inside the squares evenly. After 24 hours, the skin of white rabbit was wiped with physiologic saline solution to remove compounds of formula (1) or formula (2). […] The observation time should be extended when the irritation was shown.
# The statistical method of this test was analyzed by ANOVA (analysis of variance) and Student's t-test; p<0.05 indicates a statistical significance. Each experiment was performed over three times, and the results are shown by the standard error of the mean (mean±standard error). The results are shown in Table 7A, Table 7B, FIGS. 11a to 11d, and FIGS. 12a to 12d.
# [1] = Scavenging test of DPPH free radical; type: biochemical; conditions: for Scavenging efficiency (%): 200 μM DPPH, 30 minutes
# Method: DPPH (1,1-diphenyl-2-picrylhydrazyl) was used as a source of free radicals to examine the scavenging efficiency of the caffeamide derivatives prepared in Example 1 on free radicals. […] The mixtures were placed in the dark at room temperature for 30 minutes and its absorbance at 517 nm was measured by an enzyme immunoassay analyzer. In this experiment, 50 volume % propanediol was used to replace extracts and to be a control group, ascorbic acid (vitamin C) was used as a positive control group, and methanol was used to replace DPPH as the background value. The scavenging efficiency of caffeamide derivatives on free radicals was examined by the formula blow, and the results are shown in Table 2, FIG. 1a, and FIG. 1b. Scavenging efficiency(%)=[the absorbance of the control group−the absorbance of the experimental group/the absorbance of the control group]×100%.
# c-Fos = assay: Inhibition test of AP-1 gene transcription factors, western blot; type: cell-based, human; conditions: 10 μM; UVB 40 mJ/cm^2
# Description: When cells are irradiated by UV rays, JNK, p38 and c-Jun in the cells will translocated into the nucleus, and c-For will translocate into the nucleus under the regulation of ERK and p38. The two subunits of c-Jun and c-Fos will combine to form an AP-1 gene transcription factor to participate in gene expression process and increase the mRNA transcription level of MMP-1. On the other hand, the two subunits can also reduce the gene expression level of procollagen al of Type I collagen. Therefore, in this experiment, the expression of AP-1 in the nucleus was analyzed by western blotting.
# However, after the cells were treated with the compound of formula (2) prepared in Example 1, the protein expression levels of c-Fos, p-c-Jun, and c-Jun induced by UVB were inhibited in a concentration dependent way. Specifically, when the concentration of the compound of formula (2) was 10 μM, the expression level of c-Fos was 1.1 as compared to that of the untreated cells.
# p-ERK = assay: Inhibition test of the phosphorylation of MAPK, western blot; type: cell-based, human; conditions: 10 μM; UVB 40 mJ/cm^2
# Method: (§1) It has been known that the skin photo-aging caused by UV rays will increase the content of MMPs in the dermis by the phosphorylation of MAPK. In this experiment, the effect of caffeamide derivative on the phosphorylation of MAPK in the cells was analyzed by western blotting.
# (§2) After being treated with the compound of formula (2) prepared in Example 1, the protein expression levels of the MAPKs induced by UVB were inhibited in a concentration dependent way. Specifically, when the concentration of the compound of formula (2) was 10 μM, the expression level of P-ERK was 1.1 times as compared to that of the untreated cells. When the concentration of the compound of formula (2) was 5 μM, the expression levels of p-JNK and p-p38 were both 1.1 times as compared to that of the untreated cells.
# p-p38 = assay: as above; type: cell-based, human; conditions: 5 μM; UVB 40 mJ/cm^2
# Method: as §1, §2
# p-JNK = assay: as above; type: cell-based, human; conditions: 5 μM; UVB 40 mJ/cm^2
# Method: as §1, §2
structure (smiles),measurement,setting,value
O=C(C=Cc1ccc(O)c(O)c1)NCCc1ccc(Br)cc1 [Compound of formula (2)],activity of the tyrosinase in the cells,tyrosinase,inhibited
same,expression level of MMP-9 as compared to that of the untreated cells,MMP-9,0.7 times
same,"primary irritation index (PII), mean ± standard error","skin of white rabbit; 20 mg, 24 hour, abraded skin",0.0 ± 0.0
same,"primary irritation index (PII), single rabbits 1-3","skin of white rabbit; 20 mg, 24 hour, abraded skin",0
same,"primary irritation index (PII), mean ± standard error","skin of white rabbit; 20 mg, 24 hour, intact skin",0.0 ± 0.0
same,"primary irritation index (PII), single rabbits 1-3","skin of white rabbit; 20 mg, 24 hour, intact skin",0
same,"primary irritation index (PII), mean ± standard error","skin of white rabbit; 20 mg, 72 hour, abraded skin",0.0 ± 0.0
same,"primary irritation index (PII), single rabbits 1-3","skin of white rabbit; 20 mg, 72 hour, abraded skin",0
same,"primary irritation index (PII), mean ± standard error","skin of white rabbit; 20 mg, 72 hour, intact skin",0.0 ± 0.0
same,"primary irritation index (PII), single rabbits 1-3","skin of white rabbit; 20 mg, 72 hour, intact skin",0
same,"primary irritation index (PII), mean ± standard error","skin of white rabbit; 80 mg, 24 hour, abraded skin",0.7 ± 0.6
same,"primary irritation index (PII), mean ± standard error","skin of white rabbit; 80 mg, 24 hour, intact skin",0.0 ± 0.0
same,"primary irritation index (PII), single rabbits 1-3","skin of white rabbit; 80 mg, 24 hour, intact skin",0
same,"primary irritation index (PII), mean ± standard error","skin of white rabbit; 80 mg, 72 hour, abraded skin",0.3 ± 0.6
same,"primary irritation index (PII), mean ± standard error","skin of white rabbit; 80 mg, 72 hour, intact skin",0.0 ± 0.0
same,"primary irritation index (PII), single rabbits 1-3","skin of white rabbit; 80 mg, 72 hour, intact skin",0
same,Scavenging efficiency (%),[1]; 1 μM,6.4 ± 4.9%
same,Scavenging efficiency (%),[1]; 5 μM,12.9 ± 3.5%
same,Scavenging efficiency (%),[1]; 10 μM,26.5 ± 0.9%
same,Scavenging efficiency (%),[1]; 25 μM,62.1 ± 2.9%
same,Scavenging efficiency (%),[1]; 50 μM,96.6 ± 0.4%
same,EC50,"[1]; DPPH free radical scavenging, read-out: SC50 (the source's name)",20 ± 1 µM
same,expression level of c-Fos as compared to that of the untreated cells,c-Fos,1.1
same,expression level of p-ERK as compared to that of the untreated cells,p-ERK,1.1 times
same,expression level of p-p38 as compared to that of the untreated cells,p-p38,1.1 times
same,expression level of p-JNK as compared to that of the untreated cells,p-JNK,1.1 times
